Results published in patent US7452688B2, “Transformed cell with enhanced sensitivity to antifungal compound and use thereof” (Sumitomo Chemical Company, Limited, priority 2002, dated 2008).

Legend:
Format in all cases: cell-based, Saccharomyces cerevisiae
AH22 strain [1] = test: Antifungal compound sensitivity test, control yeast AH22 strain (Example 9); conditions: 30° C. 27 hours
Description: (§1) The transformed budding yeast AH22-HIK1 prepared in Example 8 was cultured while shaking at 30° C. for 24 hours in a Glu-Leu medium. As a control, the AH22 strain was similarly cultured while shaking at 30° C. for 24 hours in a Glu medium. The absorbance at 600 nm of a cell suspension of each of the grown transformed budding yeasts was measured, and a cell suspension diluted with each medium to the absorbance of 0.1 was prepared. Further, a cell suspension in which the aforementioned cell suspension of the transformed budding yeast AH22-HIK1 was diluted 50-fold with a Glu-Leu medium, and a cell suspension in which the aforementioned cell suspension of AH22 strain was diluted 50-fold with a Glu medium were prepared. A suspension in which each of compounds (1) to (3) was dissolved in dimethylsulfoxide (DMSO) to the concentration of 200 ppm, a solution in which each of Compounds (4) to (5) was dissolved in dimethylsulfoxide (DMSO) to the concentration of 600 ppm, and a solution in which each of Compounds (6) and (7) was dissolved in dimethylsulfoxide (DMSO) to the concentration of 20 ppm were prepared, and two microplates were prepared in which each 1.0 μL per well of the Compound solution and DMSO as a control were dispensed into two wells. In one microplate among them, each 100 μL of a cell suspension of the transformed budding yeast AH22-hiki which had been prepared by dilution as described above was dispensed, and cultured by allowing to stand at 30° C. for 23 hours. In another microplate, each 100 μL of the cell suspensions of control yeast AH22 strain which had been prepared by dilution as described above was dispensed, and cultured by allowing to stand at 30° C. for 27 hours. After culturing, the absorbance at 600 nm of each well was measured with a microplate reader.
(§2) Degree of growths of both of the transformed budding yeasts cultured in the presence of Compounds (1) to (7) and budding yeast as a control therefor are shown in Table 3. Degrees of growths of both of the transformed budding yeasts and budding yeast as a control thereof or are shown by a relative value in percentage, letting the absorbance of 600 nm at the concentration of the Compound of 0 ppm to be […]. It was confirmed that an inhibiting degree of growth of TM182-HIK1 by each test substance was greater than an inhibiting degree of growth of AH22-HIK1 by each test substance, and the TM182-HIK1 was a transformed cell with the enhanced sensitivity to an antifungal-compound as compared with AH22-HIK1.

[2] = tested on: transformed budding yeast AH22-HIK1; test: Antifungal compound sensitivity test, transformed budding yeast AH22-HIK1 (Example 9); conditions: 30° C. 23 hours
Description: as §1, §2

[3] = tested on: transformed budding yeast TM182-HIK1; test: Antifungal compound sensitivity test of transformed budding yeast TM182-HIK1 (Example 9); conditions: 30° C. 27 hours; for Degree of growth of budding yeast (%) TM182-HIK1 Gal-Ura-Leu medium: control medium
Description: Similarly, the transformed budding yeast TM182-HIK1 prepared in Example 8 was cultured at 30° C. for 24 hours in a Glu-Ura-Leu medium. The absorbance at 600 nm of a cell suspension of the grown transformed budding yeast was measured, and a cell suspension diluted with each medium to the absorbance of 0.1 was prepared. Further, a cell suspension in which the aforementioned cell suspension of the transformed budding yeast TM182-HIK1 was diluted 50-fold with a Glu-Ura-Leu medium and, as a control, a cell suspension in which the suspension was diluted 50-fold with a […] prepared. A suspension in which each of Compounds (1) to (3) was dissolved in dimethylsulfoxide (DMSO) to the concentration of 200 ppm, a solution in which each of Compounds (4) and (5) was dissolved in dimethylsulfoxide (DMSO) to the concentration of 600 ppm, and a solution in which each of Compounds (6) and (7) was dissolved in dimethylsulfoxide (DMSO) to the concentration of 20 ppm were prepared, and two microplates were prepared in which each 1.0 μL per well of the Compound DMSO solution and DMSO as a control were dispensed into two wells. In one microplate among them, each 100 μL of cell suspensions of the transformed budding yeast TM182-HIK1 which had been prepared by dilution with a Glu-Ura-Leu medium as described above was dispensed, and cultured by allowing to stand at 30° C. for 27 hours. In another microplate; as described above, as a control, each 100 μL of cell suspensions of the transformed budding yeast TM182-HIK1 which had been prepared by dilution with a Gal-Ura-Leu medium was dispensed, and cultured by allowing to stand at 30° C. for 27 hours. After culturing, the absorbance at 600 nm of each well was measured with a microplate reader.
as §2

AH22 strain [4] = test: Antifungal compound sensitivity test, control yeast AH22 strain (Example 19); conditions: 30° C. 24.8 hours, relative value in percentage
Description: The transformed budding yeast AH22-RsOS1 prepared in Example 18 was cultured while shaking at 30° C. for 18 hours in a Glu-Leu medium. As a control, the AH22 strain was similarly cultured while shaking at 30° C. for 18 hours in a Glu medium. The absorbance at 600 nm of each grown transformed budding yeast in a cell suspension was measured, and cell suspension diluted with sterilized distilled water to the absorbance of 0.1 was prepared. Further, a cell suspension in which the aforementioned cell suspension of the transformed budding yeast AH22-RsOS1 was diluted 50-fold with a Glu-Leu medium, and a cell suspension in which the aforementioned cell suspension of the AH22 strain was diluted 50-fold with a Glu medium were prepared.
A solution in which each of Compounds (1) to (5) was dissolved in dimethylsulfoxide (DMSO) to the concentration of 600 ppm, and a solution in which Compounds (6) and (7) was dissolved in dimethylsulfoxide (DMSO) to the concentration of 60 ppm were prepared, and two microplates were prepared in which each 1.0 μL per well of the Compound solution and DMSO as a control were dispensed. In one microplate among them, each 100 μL of cell suspensions of the transformed budding yeast AH22-RsOS1 which had been prepared by dilution as described above was dispensed, and cultured by allowing to stand at 30° C. for 29.8 hours. In another microplate, each 100 μL of cell suspensions of the control yeast AH22 strain which had been prepared by dilution as described above was dispensed, and cultured by allowing to stand at 30° C. for 24.8 hours. After culturing, the absorbance at 600 nm of each well was measured with a microplate reader.
A degree of growth of the transformed budding yeast is expressed as a relative value in percentage, letting the absorbance at 600 nm at the concentration of the Compound of 0 ppm to be 100. It was confirmed that an inhibiting degree of growth of the transformed budding yeast TM182-RsOS1 by each test substance was grater than an inhibiting degree of growth of the transformed budding yeast AH22-RsOS1 by each test substance, and the transformed budding yeast TM182-RsOS1 was a transformed cell with the enhanced sensitivity to an antifungal compound as compared with the transformed budding yeast AH22-RsOS1.

Compound	Degree of growth of budding yeast (%) AH22 Glu medium (AH22 strain [1]; final concentration 0.2 ppm) [%]	Degree of growth of budding yeast (%) AH22-HIK1 Glu-Leu medium ([2]; final concentration 0.2 ppm) [%]	Degree of growth of budding yeast (%) TM182-HIK1 Gal-Ura-Leu medium ([3]; final concentration 0.2 ppm) [%]	Degree of growth of budding yeast (%) TM182-HIK1 Glu-Ura-Leu medium ([3]; final concentration 0.2 ppm) [%]	Degree of growth of budding yeast AH22 Glu medium (AH22 strain [4]; final concentration 0.6 ppm) [%]	Degree of growth of budding yeast (%) AH22 Glu medium (AH22 strain [1]; final concentration 6.0 ppm) [%]	Degree of growth of budding yeast (%) AH22-HIK1 Glu-Leu medium ([2]; final concentration 6.0 ppm) [%]	Degree of growth of budding yeast (%) TM182-HIK1 Gal-Ura-Leu medium ([3]; final concentration 6.0 ppm) [%]	Degree of growth of budding yeast (%) TM182-HIK1 Glu-Ura-Leu medium ([3]; final concentration 6.0 ppm) [%]	Degree of growth of budding yeast AH22 Glu medium (AH22 strain [4]; final concentration 6.0 ppm) [%]	Degree of growth of budding yeast (%) AH22 Glu medium (AH22 strain [1]; final concentration 2.0 ppm) [%]	Degree of growth of budding yeast (%) AH22-HIK1 Glu-Leu medium ([2]; final concentration 2.0 ppm) [%]	Degree of growth of budding yeast (%) TM182-HIK1 Gal-Ura-Leu medium ([3]; final concentration 2.0 ppm) [%]	Degree of growth of budding yeast (%) TM182-HIK1 Glu-Ura-Leu medium ([3]; final concentration 2.0 ppm) [%]
N#Cc1c[nH]cc1-c1cccc2c1OC(F)(F)O2 [Compound (6), Fludioxonil]	101	98	104	11	79									
N#Cc1c[nH]cc1-c1cccc(Cl)c1Cl [Compound (7), Fenpiclonil]	89	102	87	9	85									
O=[N+]([O-])c1c(Cl)c(Cl)c(Cl)c(Cl)c1Cl [Compound (4), Quintozene]						97	92	97	63	83				
COP(=S)(OC)Oc1c(Cl)cc(C)cc1Cl [Compound (5), Tolclofos-methyl]						93	99	106	22	78				
CC12CC1(C)C(=O)N(c1cc(Cl)cc(Cl)c1)C2=O (centres unmarked) [Compound (1), Procymidone]										88	85	89	100	62
CC(C)NC(=O)N1CC(=O)N(c2cc(Cl)cc(Cl)c2)C1=O [Compound (2), Iprodione]										92	96	84	94	79
C=CC1(C)OC(=O)N(c2cc(Cl)cc(Cl)c2)C1=O (centres unmarked) [Compound (3), Vinclozolin]										82	99	104	100	30
